The values below come from ChEMBL document CHEMBL1201862, “PubChem BioAssay data set” (2004).

What all share (experiment): inhibition of tumour cell growth, NCI panel, 48 h
Experiment [1] deals with 786-0.
For experiment [2], the system named is ACHN.
Experiment [3] has as its system CAKI-1.
Experiment [4] has as its system CCRF-CEM.
Experiment [5] concerns HCT-15.
The test system of experiment [6] is K562.
For experiment [7], the system named is Malme-3M.
For experiment [8], the system named is NCI-H522.
The subject of experiment [9] is OVCAR-3.
The test system of experiment [10] is SF-268.
Experiment [11] has as its system SF-295.
The subject of experiment [12] is SN12C.
The subject of experiment [13] is SW-620.
The subject of experiment [14] is U-251.
Experiment [15] deals with UACC-257.
In experiment [16] the test system is UO-31.
In experiment [17] the test system is RXF 393.
Experiment [18] has as its system SK-MEL-2.
Experiment [19] deals with SK-MEL-5.

Molecules are shown by their SMILES.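 Results reflect a 48-hour exposure of cells in 96-well plates to compound at five concentrations. Abbreviation: GI50, concentration required for 50% inhibition of growth.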 Active and inactive are the calls of the source. No stated cut-off is given here; in the data, active = GI50 up to about 1.1 µM and inactive = higher. Bounds are passed on as bounds.

As for `C#Cc1c(C)c(/C=C/C(C)=C\C(=O)OC)n(C)c1C`, the GI50 in [1] is 55.1 µM (inactive); in experiment [2], 47.8 µM (inactive); in experiment [3], > 100 µM (inactive); in [4] it was 33.8 µM (inactive); in [5] it was 92.9 µM; in experiment [6] it was 8.97 µM (inactive). For the same compound, the GI50 in experiment [7] is > 100 µM (inactive); in experiment [8] it was 50.7 µM (inactive); in [9], 96.2 µM (inactive); in experiment [10], 68.5 µM (inactive); in [11], > 100 µM (inactive); in [12] it was > 100 µM (inactive). In addition, the GI50 in experiment [13] is > 100 µM (inactive); in experiment [14], > 100 µM (inactive); in [15], > 100 µM (inactive); in [16], 63.4 µM (inactive).

For `CCCCCC/C(CC(=O)CCC(=O)NCCc1ccccc1)=N\NC(=O)c1ccc2ccccc2c1O`, the GI50 is 31.6 µM (inactive) in experiment [1]; 28.2 µM (inactive) in experiment [2]; 10.3 µM (inactive) in [4]; 42.4 µM (inactive) in experiment [7]; 28.8 µM (inactive) in experiment [9]; 50.4 µM (inactive) in experiment [17]. For the same compound, the GI50 was 22.6 µM (inactive) in experiment [10]; 48 µM (inactive) in experiment [11]; 20 µM (inactive) in experiment [18]; 29.5 µM (inactive) in experiment [19]; 49.5 µM (inactive) in experiment [12]; 52.7 µM (inactive) in experiment [13]. Moreover, the GI50 is 37.9 µM (inactive) in experiment [14], 30.1 µM (inactive) in experiment [15] and 35.4 µM (inactive) in [16].

For `O=C1C2=C(c3ccccc31)C(c1ccc(Cl)cc1)NC(S)=N2` (centres undefined), the GI50 in experiment [1] is 17.9 µM (inactive); in [2] it was 42.7 µM (inactive); in experiment [3] it was 28.4 µM (inactive); in experiment [4], 24.5 µM (inactive); in [5], 18.1 µM; in experiment [6] it was 19 µM (inactive). Moreover, the GI50 in experiment [7] was 28.2 µM (inactive); in experiment [8] it was 20.1 µM (inactive); in [9], 20.1 µM (inactive); in experiment [10], 17.4 µM (inactive); in experiment [11], 15.5 µM (inactive); in [18], 23.3 µM (inactive). In addition, the GI50 in experiment [19] was 33.5 µM (inactive); in experiment [12] it was 17.2 µM (inactive); in [13] it was 20.5 µM (inactive); in experiment [14], 17.5 µM (inactive); in experiment [15], 41.8 µM (inactive); in experiment [16], 14.9 µM (inactive).

On to `Nc1nc(Cl)cc(NCCCCCCCCCCCCNc2cc(Cl)nc(N)n2)n1`, for which the GI50 in [4] was 1.69 µM (inactive); in experiment [5], 7.93 µM; in experiment [6], 0.0655 µM (active); in experiment [7], 24.4 µM (inactive); in [9], 11.1 µM (inactive); in experiment [17], 9.75 µM (inactive). For the same compound, the GI50 was 28.2 µM (inactive) in experiment [10]; 1.41 µM (inactive) in experiment [11]; 34.4 µM (inactive) in experiment [18]; 0.0861 µM (active) in experiment [19]; 32.7 µM (inactive) in experiment [12]; 28.8 µM (inactive) in experiment [13]. Besides, the GI50 was 0.345 µM (active) in experiment [14], 0.515 µM (active) in [15] and 31.7 µM (inactive) in experiment [16].

In the case of `CC1(C)CCc2cc3c(cc2O1)OC(C)(C)CC3=O`, the GI50 in experiment [2] was 88.9 µM (inactive); in experiment [3] it was 52.5 µM (inactive); in [4] it was 76.6 µM (inactive); in [5], 91.8 µM; in experiment [6], 44.6 µM (inactive); in experiment [8] it was 2.39 µM (inactive). In addition, the GI50 was 27.5 µM (inactive) in [9]; > 100 µM (inactive) in experiment [10]; > 100 µM (inactive) in experiment [11]; > 100 µM (inactive) in experiment [18]; 21.1 µM (inactive) in [19]; 65.5 µM (inactive) in experiment [12]. For the same compound, the GI50 in experiment [13] is > 100 µM (inactive); in experiment [14], 90.8 µM (inactive); in [16] it was 40.3 µM (inactive).
